Test results from patent US11987564B2, “PTPRD inhibitors and uses thereof” (United States Government as represented by the Department …, priority 2021, dated 2024).
Read-outs that look alike come from different tables or passages of the source.

Assays:
PTPN1 (PTP1B) = biological target: T1, PTPN1 (PTP1B) (Homo sapiens, UniProt P18031); test: pNPP hydrolysis by PTPN1 (PTP1B) phosphatase; format: biochemical; settings: untitled table after Table 4; mean, SEM in wrapped line
T1 construct: purchased
T1 sequence (P18031 1-435): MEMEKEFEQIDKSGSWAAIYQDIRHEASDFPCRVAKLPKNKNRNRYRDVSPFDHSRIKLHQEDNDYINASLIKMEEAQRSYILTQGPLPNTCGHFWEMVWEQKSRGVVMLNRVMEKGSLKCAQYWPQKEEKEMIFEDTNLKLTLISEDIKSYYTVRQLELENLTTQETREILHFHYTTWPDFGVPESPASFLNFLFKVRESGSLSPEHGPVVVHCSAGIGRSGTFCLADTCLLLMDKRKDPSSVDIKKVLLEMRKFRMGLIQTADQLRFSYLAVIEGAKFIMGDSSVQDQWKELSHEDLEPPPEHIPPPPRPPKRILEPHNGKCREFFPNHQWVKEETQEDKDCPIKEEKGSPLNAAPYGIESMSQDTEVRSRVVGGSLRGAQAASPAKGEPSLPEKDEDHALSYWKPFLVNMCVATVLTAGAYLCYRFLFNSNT

recombinant PTPRD = recombinant PTPRD (Homo sapiens, UniProt P23468); test: pNPP hydrolysis by recombinant PTPRD phosphatase
recombinant PTPRD, sequence (P23468 21-1912): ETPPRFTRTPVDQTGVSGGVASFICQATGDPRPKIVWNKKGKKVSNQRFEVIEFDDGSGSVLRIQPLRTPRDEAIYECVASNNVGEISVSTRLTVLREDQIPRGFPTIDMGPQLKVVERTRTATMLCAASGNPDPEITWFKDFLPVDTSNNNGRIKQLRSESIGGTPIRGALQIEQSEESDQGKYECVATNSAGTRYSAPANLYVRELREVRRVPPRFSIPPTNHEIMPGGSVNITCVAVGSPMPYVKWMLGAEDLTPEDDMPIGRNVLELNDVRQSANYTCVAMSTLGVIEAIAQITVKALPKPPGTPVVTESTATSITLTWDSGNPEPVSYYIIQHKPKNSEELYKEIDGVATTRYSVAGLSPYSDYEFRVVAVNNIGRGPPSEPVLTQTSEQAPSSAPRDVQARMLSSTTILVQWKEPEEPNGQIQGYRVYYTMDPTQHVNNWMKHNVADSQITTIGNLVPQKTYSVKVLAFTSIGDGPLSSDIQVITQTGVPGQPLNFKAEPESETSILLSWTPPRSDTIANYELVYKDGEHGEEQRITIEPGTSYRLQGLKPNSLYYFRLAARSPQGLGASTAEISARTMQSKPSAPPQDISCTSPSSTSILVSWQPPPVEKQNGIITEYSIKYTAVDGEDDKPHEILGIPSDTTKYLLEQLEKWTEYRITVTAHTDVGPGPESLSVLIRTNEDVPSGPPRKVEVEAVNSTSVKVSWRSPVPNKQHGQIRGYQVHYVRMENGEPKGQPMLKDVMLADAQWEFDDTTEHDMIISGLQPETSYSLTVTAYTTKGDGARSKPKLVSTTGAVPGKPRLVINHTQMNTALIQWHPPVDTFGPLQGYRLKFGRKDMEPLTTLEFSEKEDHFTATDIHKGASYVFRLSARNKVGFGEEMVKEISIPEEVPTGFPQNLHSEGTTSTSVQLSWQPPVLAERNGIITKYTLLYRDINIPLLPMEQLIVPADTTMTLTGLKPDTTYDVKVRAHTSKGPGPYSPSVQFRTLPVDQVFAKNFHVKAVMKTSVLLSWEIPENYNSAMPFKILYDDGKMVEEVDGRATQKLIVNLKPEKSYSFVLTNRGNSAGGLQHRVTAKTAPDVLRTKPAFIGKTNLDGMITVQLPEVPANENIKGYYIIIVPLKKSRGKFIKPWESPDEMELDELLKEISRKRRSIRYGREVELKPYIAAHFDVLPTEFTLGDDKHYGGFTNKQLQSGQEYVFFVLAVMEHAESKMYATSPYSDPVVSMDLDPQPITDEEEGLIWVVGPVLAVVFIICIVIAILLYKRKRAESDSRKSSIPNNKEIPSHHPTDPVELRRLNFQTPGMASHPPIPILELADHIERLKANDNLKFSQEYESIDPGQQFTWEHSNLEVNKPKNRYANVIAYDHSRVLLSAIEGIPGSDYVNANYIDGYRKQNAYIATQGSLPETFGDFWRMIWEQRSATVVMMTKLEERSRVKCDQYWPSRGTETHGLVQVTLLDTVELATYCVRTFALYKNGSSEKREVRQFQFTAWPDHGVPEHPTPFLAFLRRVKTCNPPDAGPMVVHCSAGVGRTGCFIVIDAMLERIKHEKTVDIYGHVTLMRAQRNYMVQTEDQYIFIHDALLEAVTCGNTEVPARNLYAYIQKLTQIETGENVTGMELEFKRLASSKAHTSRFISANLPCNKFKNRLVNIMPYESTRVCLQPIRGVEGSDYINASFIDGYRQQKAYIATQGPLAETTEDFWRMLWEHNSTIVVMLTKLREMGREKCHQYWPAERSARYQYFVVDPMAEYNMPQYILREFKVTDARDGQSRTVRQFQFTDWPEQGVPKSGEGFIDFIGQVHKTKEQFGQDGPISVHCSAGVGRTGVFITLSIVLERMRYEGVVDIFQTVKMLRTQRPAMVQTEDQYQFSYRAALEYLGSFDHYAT
Description: (§2) Phosphatase assays: Data for each assay type (3 wells/experimental condition, read using a Spectromax plate reader) was plotted vs time, and results derived from the slopes of linear regions were reported from triplicate independent experiments.
(§3) For assays of compound ligands that were likely pseudo-irreversible, 18 min preincubations were also added. For work determining the effect of flavonoids on pNPP hydrolysis, a 96 well half-area plate was prepared by first filling each well to be tested with 18 μL of 50 μM pNPP and 25 uL of running buffer, and 2 μL of DMSO containing the desired concentration of flavonoid and/or peptide. PTPRD phosphatase was diluted 1:50 in a dilution buffer.

PTPRS = PTPRS (Homo sapiens, UniProt Q13332); test: pNPP hydrolysis by recombinant PTPRS phosphatase; format: biochemical
PTPRS, sequence (Q13332 30-1948, species assumed): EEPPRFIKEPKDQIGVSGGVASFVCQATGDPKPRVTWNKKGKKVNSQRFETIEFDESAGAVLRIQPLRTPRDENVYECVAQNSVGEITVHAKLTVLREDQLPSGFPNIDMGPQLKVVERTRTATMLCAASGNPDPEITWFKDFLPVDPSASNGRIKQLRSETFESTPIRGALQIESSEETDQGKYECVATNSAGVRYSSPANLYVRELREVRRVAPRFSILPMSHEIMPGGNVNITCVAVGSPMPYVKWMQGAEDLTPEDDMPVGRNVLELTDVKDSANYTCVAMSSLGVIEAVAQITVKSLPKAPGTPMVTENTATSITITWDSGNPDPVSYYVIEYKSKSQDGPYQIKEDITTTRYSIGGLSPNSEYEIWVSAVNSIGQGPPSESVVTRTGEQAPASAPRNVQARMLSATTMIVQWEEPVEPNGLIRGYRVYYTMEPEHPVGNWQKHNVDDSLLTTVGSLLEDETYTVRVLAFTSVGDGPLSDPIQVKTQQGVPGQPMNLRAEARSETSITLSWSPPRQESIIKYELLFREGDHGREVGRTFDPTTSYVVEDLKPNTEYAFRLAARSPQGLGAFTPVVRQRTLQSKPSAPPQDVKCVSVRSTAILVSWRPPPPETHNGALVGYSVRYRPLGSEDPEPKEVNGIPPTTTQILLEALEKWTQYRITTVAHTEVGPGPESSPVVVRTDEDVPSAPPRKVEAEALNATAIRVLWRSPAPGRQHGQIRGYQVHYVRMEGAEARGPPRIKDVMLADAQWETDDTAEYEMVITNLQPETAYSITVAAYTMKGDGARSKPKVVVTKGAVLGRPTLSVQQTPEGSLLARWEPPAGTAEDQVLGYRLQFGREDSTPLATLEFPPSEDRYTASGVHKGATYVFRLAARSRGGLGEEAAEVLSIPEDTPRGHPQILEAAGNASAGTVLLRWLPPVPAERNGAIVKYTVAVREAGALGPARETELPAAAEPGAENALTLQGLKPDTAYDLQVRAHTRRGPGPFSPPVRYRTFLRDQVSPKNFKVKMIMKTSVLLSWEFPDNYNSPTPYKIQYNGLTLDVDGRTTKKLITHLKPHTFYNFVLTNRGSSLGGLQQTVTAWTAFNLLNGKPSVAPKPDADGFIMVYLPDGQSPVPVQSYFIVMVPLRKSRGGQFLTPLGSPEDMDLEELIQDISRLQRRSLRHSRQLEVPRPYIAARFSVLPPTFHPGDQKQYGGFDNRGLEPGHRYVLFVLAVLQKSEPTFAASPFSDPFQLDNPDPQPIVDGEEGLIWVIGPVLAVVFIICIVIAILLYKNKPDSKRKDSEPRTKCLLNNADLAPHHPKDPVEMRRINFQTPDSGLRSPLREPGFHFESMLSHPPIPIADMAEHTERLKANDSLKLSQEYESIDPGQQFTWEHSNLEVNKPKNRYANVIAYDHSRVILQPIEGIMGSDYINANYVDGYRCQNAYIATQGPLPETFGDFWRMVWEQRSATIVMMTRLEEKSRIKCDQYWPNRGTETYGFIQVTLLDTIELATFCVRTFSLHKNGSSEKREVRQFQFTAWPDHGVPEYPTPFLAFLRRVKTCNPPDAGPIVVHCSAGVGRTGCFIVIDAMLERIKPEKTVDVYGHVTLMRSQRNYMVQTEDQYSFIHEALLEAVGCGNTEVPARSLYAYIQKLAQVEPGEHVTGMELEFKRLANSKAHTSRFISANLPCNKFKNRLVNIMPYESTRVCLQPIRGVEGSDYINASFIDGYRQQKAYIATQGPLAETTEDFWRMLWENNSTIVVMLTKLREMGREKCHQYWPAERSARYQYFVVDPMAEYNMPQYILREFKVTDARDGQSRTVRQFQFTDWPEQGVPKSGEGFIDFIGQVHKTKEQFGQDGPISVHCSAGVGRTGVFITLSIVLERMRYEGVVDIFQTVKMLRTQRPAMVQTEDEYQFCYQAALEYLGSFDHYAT
Description: (§1) Human […] ([…]-pY-[…]) phosphopeptide (Pierce/ThermoFisher) were synthesized.

PTPRJ = biological target: T2, PTPRJ (Homo sapiens, UniProt Q12913); test: pNPP hydrolysis by PTPRJ phosphatase; format: biochemical
T2 construct: purchased
T2 sequence (Q12913 36-1337): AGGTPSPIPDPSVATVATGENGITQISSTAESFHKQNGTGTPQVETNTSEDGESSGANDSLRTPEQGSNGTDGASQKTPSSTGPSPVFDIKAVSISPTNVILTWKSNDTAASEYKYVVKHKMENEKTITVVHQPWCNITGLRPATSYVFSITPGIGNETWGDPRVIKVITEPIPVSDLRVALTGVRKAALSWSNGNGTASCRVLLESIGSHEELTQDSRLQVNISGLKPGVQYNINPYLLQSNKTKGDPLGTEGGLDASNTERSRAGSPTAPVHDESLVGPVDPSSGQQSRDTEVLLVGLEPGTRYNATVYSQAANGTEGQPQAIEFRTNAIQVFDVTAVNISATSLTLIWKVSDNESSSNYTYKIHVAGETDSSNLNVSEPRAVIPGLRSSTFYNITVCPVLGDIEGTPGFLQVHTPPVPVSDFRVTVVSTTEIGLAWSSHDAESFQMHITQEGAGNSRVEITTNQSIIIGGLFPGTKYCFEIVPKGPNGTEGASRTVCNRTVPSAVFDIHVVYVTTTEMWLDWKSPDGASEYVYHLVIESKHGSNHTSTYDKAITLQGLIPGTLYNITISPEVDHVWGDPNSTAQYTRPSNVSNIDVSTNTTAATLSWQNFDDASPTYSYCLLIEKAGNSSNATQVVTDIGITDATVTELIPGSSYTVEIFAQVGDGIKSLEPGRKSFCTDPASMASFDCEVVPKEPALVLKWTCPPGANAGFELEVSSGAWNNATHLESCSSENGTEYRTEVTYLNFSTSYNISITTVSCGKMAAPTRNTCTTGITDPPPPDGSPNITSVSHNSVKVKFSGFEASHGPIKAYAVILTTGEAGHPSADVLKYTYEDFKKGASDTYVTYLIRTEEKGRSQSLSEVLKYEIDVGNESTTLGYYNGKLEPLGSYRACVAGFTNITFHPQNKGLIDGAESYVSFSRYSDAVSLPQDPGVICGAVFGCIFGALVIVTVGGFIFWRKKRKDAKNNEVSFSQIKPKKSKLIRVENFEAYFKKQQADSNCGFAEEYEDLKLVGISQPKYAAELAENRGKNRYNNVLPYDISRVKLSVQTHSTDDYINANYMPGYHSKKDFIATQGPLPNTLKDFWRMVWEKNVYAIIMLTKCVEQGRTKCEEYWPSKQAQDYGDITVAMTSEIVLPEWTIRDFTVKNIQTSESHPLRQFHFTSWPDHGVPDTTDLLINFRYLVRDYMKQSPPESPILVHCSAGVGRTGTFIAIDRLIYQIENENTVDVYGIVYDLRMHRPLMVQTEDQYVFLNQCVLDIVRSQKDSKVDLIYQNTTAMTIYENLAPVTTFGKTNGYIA
Description: as §1

PTPRF = PTPRF (Homo sapiens, UniProt P10586); test: pNPP hydrolysis by recombinant PTPRF phosphatase
Description: as §2, §3

[1] = PTPRD IC50, untitled table after Table 4, mean, SEM in wrapped line, compounds with PTPRD IC50 <5 μM
[2] = Table 4, mean (SEM) of three independent experiments, * = instability, no valid triplicate
[3] = untitled table after Table 4, mean, SEM in wrapped line
[4] = PTPRF IC50, Table 4, mean (SEM) of three independent experiments, * = instability, no valid triplicate
[5] = PTPRF IC50, untitled table after Table 4, mean, SEM in wrapped line
[6] = PTPRD IC50, Table 4, mean (SEM) of three independent experiments, * = instability, no valid triplicate

Compound | IC50 (PTPN1 (PTP1B)) [µM] | IC50 (recombinant PTPRD; [1]) [µM] | IC50 (PTPRS; [2]) [µM] | IC50 (PTPRS; [3]) [µM] | IC50 (PTPRJ; [3]) [µM] | IC50 (PTPRF; [4]) [µM] | IC50 (PTPRF; [5]) [µM] | IC50 (PTPRJ; [2]) [µM] | IC50 (recombinant PTPRD; [6]) [µM] | IC50 (recombinant PTPRD; read-out: PTPRD IC50, untitled table after Table 4, mean, SEM in wrapped line, compounds with PTPRD IC50 <5 μM) [µM]
COc1c(OCC2CCC2)cc2c(c1C=O)CC(O)OC2=O (centres unmarked) [Compound 65, 7-Cyclobutylmethoxy-3-hydroxy-6-methoxy-1-oxo-isochroman-5-carbaldehyde] | 24.1 | 2.76 | 3.36 | 2.85 | 32.7 | 3.03 | 4.52 | – | – | –
COc1c(OCC2CCCCCC2)cc2c(c1C=O)CC(O)OC2=O (centres unmarked) [Compound 69] | 27.1 | – | 0.77 | 0.77 | 9.8 | 1.16 | 1.16 | 9.81 | – | –
COc1c(OCCCC(F)(F)F)cc2c(c1C=O)CC(O)OC2=O (centres unmarked) [Compound 63, 3-Hydroxy-6-methoxy-1-oxo-7-(4,4,4-trifluorobutoxy)isochromane-5-carbaldehyde] | – | – | – | – | 108 | – | – | – | – | –
COc1c(OCCCCc2ccc(Cl)cc2)cc2c(c1C=O)CC(O)OC2=O (centres unmarked) [Compound 53, 7-(4-(4-Chlorophenyl)butoxy)-3-hydroxy-6-methoxy-1-oxoisochromane-5-carbaldehyde] | 65.7 | – | 3.09 | 3.09 | 28.9 | 5.67 | 5.67 | 28.9 | – | –
COc1c(OCCc2ccccc2)cc2c(c1C=O)CC(O)OC2=O (centres unmarked) [Compound 50, 3-Hydroxy-6-methoxy-1-oxo-7-phenethoxyisochromane-5-carbaldehyde] | 219 | 4.57 | 3.03 | 3.03 | 54.8 | – | – | 54.8 | 4.57 | –
COc1c(OCc2ccc(C)s2)cc2c(c1C=O)CC(O)OC2=O (centres unmarked) [Compound 46, 3-Hydroxy-6-methoxy-7-((5-methylthiophen-2-yl)methoxy)-1-oxoisochromane-5-carbaldehyde] | – | 0.92 | 1.4 | 1.4 | 19.8 | 3.5 | 3.5 | 19.8 | 0.92 | –
COc1c(OCCCc2ccccc2)cc2c(c1C=O)CC(O)OC2=O (centres unmarked) [Compound 52, 3-Hydroxy-6-methoxy-1-oxo-7-(3-phenylpropoxy)isochromane-5-carbaldehyde] | – | – | 0.93 | 0.93 | – | 4.41 | 4.41 | – | – | –
COc1c(OCc2ccc(Oc3ccc(F)cc3)cc2)cc2c(c1C=O)CC(O)OC2=O (centres unmarked) [Compound 44, 7-((4-(4-Fluorophenoxy)benzyl)oxy)-3-hydroxy-6-methoxy-1-oxoisochromane-5-carbaldehyde] | – | 2.49 | – | – | – | – | – | – | 2.49 | –
COc1c(OCc2ccccc2)cc2c(c1C=O)CC(O)OC2=O (centres unmarked) [Compound 27, 7-(Benzyloxy)-3-hydroxy-6-methoxy-1-oxoisochromane-5-carbaldehyde] | 171 | – | 1.6 | 1.6 | 47.2 | 3.62 | 3.62 | 47.2 | – | 1.64
COc1c(OCc2ccc(Oc3ccccc3)cc2)cc2c(c1C=O)CC(O)OC2=O (centres unmarked) [Compound 43, 3-Hydroxy-6-methoxy-1-oxo-7-((4-phenoxybenzyl)oxy)isochromane-5-carbaldehyde] | 16.7 | 1.6 | 1.34 | 1.34 | 28.4 | 3.93 | 3.93 | 28.4 | 1.6 | –
COc1c(OCc2ccc3ccccc3c2)cc2c(c1C=O)CC(O)OC2=O (centres unmarked) [Compound 49, 3-Hydroxy-6-methoxy-7-(naphthalen-2-ylmethoxy)-1-oxoisochromane-5-carbaldehyde] | 221 | – | 4.61 | 4.61 | 33.3 | 5.87 | 5.87 | 33.3 | – | –
COc1c(OCC=C(C)C)cc2c(c1C=O)CC(O)OC2=O (centres unmarked) [Compound 59, 3-Hydroxy-6-methoxy-7-(3-methyl-but-2-enyloxy)-1-oxo-isochroman-5-carbaldehyde] | > 100 | 3.21 | 1.8 | 1.8 | 17.8 | 2.46 | 2.46 | 17.8 | 3.21 | –
COc1c(OCCCCc2ccc(O)cc2O)cc2c(c1C=O)CC(O)OC2=O (centres unmarked) [Compound 55] | 320 | 4.45 | 2.27 | 2.27 | 55.5 | 6.8 | 6.8 | 55.5 | 4.45 | –
COc1c(OCCC(C)C)cc2c(c1C=O)CC(O)OC2=O (centres unmarked) [Compound 58, 3-Hydroxy-7-(isopentyloxy)-6-methoxy-1-oxoisochromane-5-carbaldehyde] | 121 | 2.82 | 2.76 | 2.76 | 51.9 | 3.87 | 3.87 | 51.9 | 2.82 | –
COc1c(OCc2c(Cl)cc(Cl)cc2Cl)cc2c(c1C=O)CC(O)OC2=O (centres unmarked) [Compound 42] | 28.9 | 2.5 | 2.15 | 2.2 | 23.6 | – | – | 23.6 | 2.47 | –
COc1c(OCc2ccc(Br)cc2)cc2c(c1C=O)CC(O)OC2=O (centres unmarked) [Compound 39, 7-((4-Bromobenzyl)oxy)-3-hydroxy-6-methoxy-1-oxoisochromane-5-carbaldehyde] | – | – | 5 | 5 | 29.9 | 3.82 | 3.82 | 29.9 | – | –
COc1c(OCC2CC2)cc2c(c1C=O)CC(O)OC2=O (centres unmarked) [Compound 64, 7-Cyclopropylmethoxy-3-hydroxy-6-methoxy-1-oxo-isochroman-5-carbaldehyde] | – | 4.18 | – | – | – | – | – | – | 4.18 | –
COc1c(OCC2CCCCC2)cc2c(c1C=O)CC(O)OC2=O (centres unmarked) [Compound 68, 7-Cyclohexylmethoxy-3-hydroxy-6-methoxy-1-oxo-isochroman-5-carbaldehyde] | 101 | – | 1.06 | 1.06 | 0.56 | 0.76 | 0.76 | – | – | –
COc1c(OCc2ccc(Cl)cc2Cl)cc2c(c1C=O)CC(O)OC2=O (centres unmarked) [Compound 40, 7-((2,4-Dichlorobenzyl)oxy)-3-hydroxy-6-methoxy-1-oxoisochromane-5-carbaldehyde] | 76 | – | 1.03 | 1.03 | 14.6 | 3.55 | 3.55 | 14.6 | – | –
